In brackets after ≈: the same amount, converted by molar mass. Several values for one entry are separate records, joined by “and”; a condition that tells them apart may be missing. Equal entries are not always repeated. Where two headings read alike, the source gives them in different places.
Assays:
[1] = target: AChE from electric eel (EeAChE) (Electrophorus electricus, UniProt O42275); assay: biochemical; assay type: biochemical
[2] = target: BuChE from equine serum (EqBuChE) (Equus caballus, UniProt P81908); assay: biochemical
[3] = test system: four Gram-positive and four Gram-negative bacterial strains; assay: Antibacterial microdilution broth method, whole panel; assay type: cell-based
[4] = test system: eight human pathogenic fungi; assay: Antifungal microdilution broth method, whole panel; assay type: cell-based; conditions: not reported in Table 2, read-out: MIC, all fungal strains tested
HepG2 cells [5] = test system: HepG2 cells
Procedure: (§1) Cytotoxicity of the tested compounds was measured using the standard hepatic cell line HepG2. The used CellTiter 96® assay is based on the reduction of tetrazolium dye (MTS) in living cells to formazan, which is then determined colorimetrically.

in vitro [6] = conditions: human; for IC50 at 24 h: HepG2 cells
Procedure: as §1

in vitro [7] = conditions: human
HepG2 cells [8] = assay: LDH release assay (CytoTox 96), membrane integrity; conditions: read-out: EC50 LDH release assay
[9] = test system: Staphylococcus aureus ATCC 29213; assay: Antibacterial microdilution broth method (EUCAST); assay type: cell-based
[10] = test system: methicillin-resistant Staphylococcus aureus ATCC 43300; assay: Antibacterial microdilution broth method (EUCAST); assay type: cell-based; conditions: ATCC 43300 / MRSA
[11] = test system: Staphylococcus epidermidis ATCC 12228; assay: Antibacterial microdilution broth method (EUCAST); assay type: cell-based
[12] = test system: Enterococcus faecalis ATCC 29212; assay: Antibacterial microdilution broth method (EUCAST); assay type: cell-based
[13] = test system: Escherichia coli ATCC 25922; assay: Antibacterial microdilution broth method (EUCAST); assay type: cell-based
[14] = test system: Acinetobacter baumannii ATCC 19606; assay: Antibacterial microdilution broth method (EUCAST); assay type: cell-based
[15] = test system: Pseudomonas aeruginosa ATCC 27853; assay: Antibacterial microdilution broth method (EUCAST); assay type: cell-based
[16] = test system: Klebsiella pneumoniae ATCC 10031; conditions: for MIC KP 24 h: 24 h incubation; for MIC KP 48 h: 48 h incubation
[17] = test system: Candida albicans ATCC 24443; assay: microbe, parasite or virus in culture; assay type: cell-based
Candida krusei ATCC 6258 = assay: microbe, parasite or virus in culture; assay type: cell-based; conditions: Pichia kudriavzevii
[18] = test system: Candida parapsilosis ATCC 22019; assay: microbe, parasite or virus in culture; assay type: cell-based; conditions: Lodderomyces parapsilosis
[19] = test system: Candida tropicalis ATCC 750; assay: microbe, parasite or virus in culture; assay type: cell-based
[20] = test system: Trichophyton interdigitale ATCC 9533; assay: microbe, parasite or virus in culture; assay type: cell-based
[21] = mean ± SD, n = three independent experiments, ATCh 40 µM, read-out: IC50 AChE
[22] = mean ± SD, n = three independent experiments, BTCh 40 µM, read-out: IC50 BuChE
[23] = read-out: MIC, all bacterial strains tested
[24] = read-out: IC50 cytotoxicity towards HepG2 cell line, CellTiter 96, 24 h incubation
[25] = ATCC29213, 24 h, read-out: MIC SA 24 h
[26] = ATCC29213, 48 h, read-out: MIC SA 48 h
[27] = ATCC12228, 24 h, read-out: MIC SE 24 h
[28] = ATCC12228, 48 h, read-out: MIC SE 48 h
[29] = ATCC29212, 24 h, read-out: MIC EF 24 h
[30] = ATCC29212, 48 h, read-out: MIC EF 48 h
[31] = ATCC25922, 24 h, read-out: MIC EC 24 h
[32] = ATCC25922, 48 h, read-out: MIC EC 48 h
[33] = ATCC19606, 24 h, read-out: MIC ACI 24 h
[34] = ATCC19606, 48 h, read-out: MIC ACI 48 h
[35] = ATCC27853, 24 h, read-out: MIC PA 24 h
[36] = ATCC27853, 48 h, read-out: MIC PA 48 h
[37] = ATCC24443, 24 h, read-out: MIC CA 24 h
[38] = ATCC24443, 48 h, read-out: MIC CA 48 h
[39] = ATCC6258, 24 h, read-out: MIC CK 24 h
[40] = ATCC6258, 48 h, read-out: MIC CK 48 h
[41] = ATCC22019, 24 h, read-out: MIC CP 24 h
[42] = ATCC22019, 48 h, read-out: MIC CP 48 h
[43] = ATCC750, 24 h, read-out: MIC CT 24 h
[44] = ATCC750, 48 h, read-out: MIC CT 48 h
[45] = ATCC9533, 72 h, read-out: MIC TI 72 h
[46] = ATCC9533, 120 h, read-out: MIC TI 120 h

Chain of AChE from electric eel (EeAChE) (O42275 24-633): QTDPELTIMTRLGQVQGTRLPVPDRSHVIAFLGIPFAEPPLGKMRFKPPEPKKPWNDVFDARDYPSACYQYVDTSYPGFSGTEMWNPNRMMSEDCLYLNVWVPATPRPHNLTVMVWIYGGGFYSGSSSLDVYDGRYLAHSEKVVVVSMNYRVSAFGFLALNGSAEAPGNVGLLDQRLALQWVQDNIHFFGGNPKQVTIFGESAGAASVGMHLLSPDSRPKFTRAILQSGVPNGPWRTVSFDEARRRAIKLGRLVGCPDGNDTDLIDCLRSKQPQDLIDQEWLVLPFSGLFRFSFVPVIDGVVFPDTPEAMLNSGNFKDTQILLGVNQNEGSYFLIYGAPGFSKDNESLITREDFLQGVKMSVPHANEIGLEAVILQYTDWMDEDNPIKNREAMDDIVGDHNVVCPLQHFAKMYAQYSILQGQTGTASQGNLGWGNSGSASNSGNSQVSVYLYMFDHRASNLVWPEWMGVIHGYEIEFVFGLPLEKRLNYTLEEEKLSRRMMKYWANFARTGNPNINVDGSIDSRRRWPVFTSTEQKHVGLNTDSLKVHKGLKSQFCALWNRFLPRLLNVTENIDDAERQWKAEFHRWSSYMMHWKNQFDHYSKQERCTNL
Chain of BuChE from equine serum (EqBuChE) (P81908 whole entry): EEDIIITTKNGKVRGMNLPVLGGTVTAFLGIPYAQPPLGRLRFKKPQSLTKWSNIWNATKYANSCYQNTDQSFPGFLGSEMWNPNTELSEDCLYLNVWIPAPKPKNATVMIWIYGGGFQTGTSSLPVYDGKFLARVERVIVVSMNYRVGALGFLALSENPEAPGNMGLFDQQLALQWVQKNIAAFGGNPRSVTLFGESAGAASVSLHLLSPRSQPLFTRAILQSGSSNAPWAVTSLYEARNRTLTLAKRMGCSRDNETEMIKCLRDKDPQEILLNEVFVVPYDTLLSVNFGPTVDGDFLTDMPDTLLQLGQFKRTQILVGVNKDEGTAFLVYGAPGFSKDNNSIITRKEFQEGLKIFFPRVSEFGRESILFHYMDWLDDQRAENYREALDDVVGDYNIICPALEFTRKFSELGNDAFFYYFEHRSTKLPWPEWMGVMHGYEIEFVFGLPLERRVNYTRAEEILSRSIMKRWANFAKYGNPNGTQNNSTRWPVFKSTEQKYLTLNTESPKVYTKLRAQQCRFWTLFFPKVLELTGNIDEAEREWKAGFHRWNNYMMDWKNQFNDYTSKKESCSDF

Row | SMILES | IC50 [1, 21] [µM] | IC50 [2, 22] | MIC [4] [µM] | IC50 at 24 h (in vitro [6]) [µM] | EC50 at 24 h (in vitro [7]; HepG2 cells) [µM] | EC50 (HepG2 cells [8]; HepG2, 24 h incubation) [µM] | MIC [9, 25] [µM] | MIC [9, 26] [µM] | MIC ([10]; 24 h, read-out: MIC MRSA 24 h) [µM] | MIC ([10]; 48 h, read-out: MIC MRSA 48 h) [µM] | MIC [11, 27] [µM] | MIC [11, 28] [µM] | MIC [12, 29] [µM] | MIC [12, 30] [µM] | MIC [13, 31] [µM] | MIC [13, 32] [µM] | MIC [14, 33] [µM] | MIC [14, 34] [µM] | MIC [15, 35] [µM] | MIC [15, 36] [µM] | also measured
1 | [H]/N=C(\N)NN=Cc1cc(I)cc(I)c1O [Compound 1m, (E)-2-(2-Hydroxy-3,5-diiodobenzylidene)hydrazine-1-carboximidamide] | 29 ± 2.49 | < 20 µM and 3.57 µM | ≥ 500 | > 29 | > 20 | 21.3 |  |  |  |  |  |  |  |  |  |  |  |  |  |  | MIC [3, 23]: ≥ 500 µM; IC50 (HepG2 cells [5]; [24]): 56.5 µM
2 | [H]/N=C(\N)NN=Cc1ccc([N+](=O)[O-])o1 [Compound 1n, (E)-2-[(5-Nitrofuran-2-yl)methylene]hydrazine-1-carboximidamide] |  |  | ≥ 500 |  |  | 3.55 | 62.5 (≈ 12.3 µg/mL) | 125 (≈ 24.6 µg/mL) | 125 (≈ 24.6 µg/mL) | 125 (≈ 24.6 µg/mL) | 62.5 (≈ 12.3 µg/mL) | 125 (≈ 24.6 µg/mL) | 500 (≈ 98.6 µg/mL) | 500 (≈ 98.6 µg/mL) | 62.5 (≈ 12.3 µg/mL) | 125 (≈ 24.6 µg/mL) | 250 (≈ 49.3 µg/mL) | 500 (≈ 98.6 µg/mL) | 500 (≈ 98.6 µg/mL) | 500 (≈ 98.6 µg/mL) | IC50 [1]: 24.2 ± 0.75 µM; Selectivity AChE/BuChE [1]: 0.12; Type of inhibition of AChE [1]: mixed inhibition; IC50 ([2]; IC50 BuChE): 204 ± 13.2 µM; MIC KP 24 h [16]: 250 µM (≈ 49.3 µg/mL); MIC KP 48 h [16]: 250 µM (≈ 49.3 µg/mL); IC50 (HepG2 cells [5]; human): 10.4 µM; IC50 (in vitro [6]): < 11 µM; EC50 at 24 h (in vitro [7]): < 6 µM
3 | NC(N)=NN=C1C(=O)Nc2ccccc21 [Compound 1p, 2-(2-Oxoindolin-3-ylidene)hydrazine-1-carboximidamide] | 17.9 ± 0.9 | < 20 µM and 17.5 µM | ≥ 500 | > 500 | > 100 | 130 |  |  |  |  |  |  |  |  |  |  |  |  |  |  | Selectivity AChE/BuChE [1]: 1.03; Type of inhibition of AChE [1]: mixed inhibition; Type of inhibition of BuChE [2]: mixed inhibition; MIC [3, 23]: ≥ 500 µM; Cytotoxicity in HepG2 in words (HepG2 cells [5]; range of tested concentrations up to 500 µM): no significant cytotoxicity
4 | CC(=O)Oc1c(I)cc(I)cc1/C=N/NC(=N)N [Compound 2a, (E)-2-[(2-Carbamimidoylhydrazineylidene)methyl]-4,6-diiodophenyl acetate] | 20.5 ± 0.48 | < 20 µM and 4.52 µM |  | > 29 | > 20 | 30.4 | 125 | 125 | 125 | 125 | 250 | 250 | 250 | 250 | 250 | 250 | 500 | 500 | > 500 | > 500 | MIC [17, 37]: 125 µM; MIC [17, 38]: 125 µM; MIC (Candida krusei ATCC 6258; [39]): 500 µM; MIC (Candida krusei ATCC 6258; [40]): 500 µM; MIC [18, 41]: 500 µM; MIC [18, 42]: 500 µM; MIC [19, 43]: 500 µM; MIC [19, 44]: 500 µM; MIC [20, 45]: 62.5 µM; MIC [20, 46]: 125 µM; Selectivity AChE/BuChE [1]: 4.54; Type of inhibition of AChE [1]: mixed inhibition; Type of inhibition of BuChE [2]: mixed inhibition; MIC KP 24 h [16]: 250 µM; MIC KP 48 h [16]: 250 µM; IC50 (HepG2 cells [5]; [24]): 31.3 µM
5 | [H]/N=C(\N)NN=Cc1cc(I)cc(I)c1 [Compound 2c, (E)-2-(3,5-Diiodobenzylidene)hydrazine-1-carboximidamide] | 29 ± 1.19 | 85.5 ± 1.46 µM | ≥ 500 | < 11 | < 6 | 5.44 | 15.6 (≈ 6.47 µg/mL) | 15.6 (≈ 6.47 µg/mL) | 15.6 (≈ 6.47 µg/mL) | 15.6 (≈ 6.47 µg/mL) | 7.8 (≈ 3.23 µg/mL) | 7.8 (≈ 3.23 µg/mL) | 31.2 (≈ 12.9 µg/mL) | 31.2 (≈ 12.9 µg/mL) | 62.5 (≈ 25.9 µg/mL) | 62.5 (≈ 25.9 µg/mL) | 250 (≈ 103 µg/mL) | 250 (≈ 103 µg/mL) | 250 (≈ 103 µg/mL) | 250 (≈ 103 µg/mL) | Selectivity AChE/BuChE [1]: 0.34; MIC ([3]; read-out: MIC against staphylococci): 31.2 to 125 µM (≈ 12.9 to 51.7 µg/mL); MIC KP 24 h [16]: 62.5 µM (≈ 25.9 µg/mL); MIC KP 48 h [16]: 62.5 µM (≈ 25.9 µg/mL); IC50 (HepG2 cells [5]; [24]): 9.84 µM
6 | Cl.N=C(NN)N/N=C/c1cc(I)cc(I)c1O [Compound 2e, (E)-Hydrazineyl[2-(2-hydroxy-3,5-diiodobenzylidene)hydrazineyl]methaniminium chloride] |  |  |  | > 100 | > 100 |  | 62.5 | 125 | 125 | 125 | 31.2 | 31.2 | > 125 | > 125 | > 125 | > 125 | > 125 | > 125 | > 125 | > 125 | MIC [17, 37]: 125 µM; MIC [17, 38]: 125 µM; MIC (Candida krusei ATCC 6258; [39]): 125 µM; MIC (Candida krusei ATCC 6258; [40]): 125 µM; MIC [18, 41]: 125 µM; MIC [18, 42]: 125 µM; MIC [19, 43]: 125 µM; MIC [19, 44]: 125 µM; MIC [20, 45]: 125 µM; MIC [20, 46]: 125 µM; IC50 [1]: 28.2 ± 0.98 µM; Type of inhibition of BuChE [2]: mixed inhibition; IC50 ([2]; read-out: IC50 BuChE): 1.69 ± 0.17 µM; MIC KP 24 h [16]: >125 µM; MIC KP 48 h [16]: >125 µM; IC50 (HepG2 cells [5]; read-out: IC50 cytotoxicity towards HepG2 cell line): 120 µM; EC50 (HepG2 cells [8]): 132 µM

— paper PMC8704707 (Pharmaceuticals, 2021)
